# Structures can show the parent of a compound that is named as a salt. Where two headings read alike, the source gives them in different places.
# Key:
# [1] = target: T1, S1P2 (Homo sapiens, UniProt O95136); assay: Specificity over other S1P receptors: S1P2 CRE-bla CHOK1; assay type: cell-based; conditions: S1P2 CRE-bla CHOK1, without Forskolin; read-out: S1P2 agonist value (EC50)
# T1 construct: expressed in transfected cells; host or cells: CRE-bla CHOK1
# Method: (§1) Cells were seeded into 384-well black wall/clear bottom plates at 10^4 cells/well/19.5 μl assay media (DMEM-phenol free, 0.5% charcoal/dextran stripped serum, 2 mM glutamine, 0.1 mM NEAA, 1 mM Na-Pyruvate, 25 mM Hepes) and incubated for 18 hrs at 37° C. in 5% CO2. Dose response curves (10-point) were generated in 10 mM Hepes, 0.1% Pluronic F127, in the presence of Forskolin. Cells were treated with 0.5 μl compound in the presence of 2 μM Forskolin for 4 hrs at 37° C. The FRET-based β-lactamase fluorescent substrate (LiveBLAzer™-FRET B/G Loading Kit CC4-AM; Invitrogen) was prepared according to manufacturer's directions, and incubated with cells for 2 hrs at room temperature. Plates were read at Ex:410/Em:458 and Ex:410/Em:522, and the response ratio determined Data was analyzed by non-linear regression to determine the EC50 for inhibition of Forskolin induced cAMP.
# (§2) To assess compound specificity on other […] receptors the following cell lines were used: S1P2 CRE-bla CHOK1, S1P3-Gα15 NFAT-bla HEK293T (Invitrogen), S1P4-bla TANGO U2OS (Invitrogen), S1P5-bla TANGO U2OS (Invitrogen). The same assay set up for S1P1 was used but without Forskolin. S1P4 and S1P5 assays were performed in FreeStyle Expression medium (Invitrogen). S1P5 cells were incubated for 48 hrs in prior to treatment with compound.
# [2] = tested on: CD4 or CD8 positive T cells; assay: Lymphopenia in rats; assay type: in vivo; conditions: for inhibition in vivo at 0.2 mg/kg: po, rat, 24 h after a 0.2 mg/kg single dose; for ED50: read-out: ED50 (estimated dose needed to produce 50% lymphopenia), rat, at 24 h after a 3-5 day dosing regimen
# Method: In rats: Female rats (Simonsen Laboratories, Gilroy Calif.) were housed in an ALAAC accredited facility and the research was approved by the facilities Institutional Animal Care and Use Committee (IACUC). The animals were acclimated to the laboratory for at least 5 days prior to initiation of experiments. Rats (n=3/compound/time-point) were dosed by oral gavage with 1 mg/kg compound formulated in a vehicle consisting of 5% DMSO/5% Tween 20 and 90% 0.1N HCL. Control rats were dosed PO with the vehicle. Whole blood was collected from isoflurane anesthetized rats via the retro-orbital sinus and terminal samples were collected by cardiac puncture into EDTA. Whole blood was incubated with mouse anti-rat CD32 (BD #550271), PE-mouse anti-rat CD45R/B220 (BD #554881), PECy5-mouse anti-rat CD4 (BD #554839), and APC-mouse anti-rat CD8a (eBioscience #17-0084) for 30 minutes on ice. Red blood cells were lysed using BD Pharm Lyse Lysing buffer (#555899) and white blood cells were analyzed with a BD FACSArray. Lymphopenia was expressed as the % of white blood cells that were CD4 or CD8 positive T cells. The overall lymphopenia response over 24 h was estimated by calculating the area under the effect curve (AUEC) using the linear trapezoidal rule. In some experiments, total lymphocyte counts were determined using a standard impedance based veterinary hematology analyzer (IDEXX Preclinical Research Services, Sacramento, Calif.).
# The percentage of lymphopenia at 24 h after a 0.2 mg/kg single dose regiment is reported. […] N/A is not available.
# [3] = target: T2, S1P4 (Homo sapiens, UniProt O95977); assay: Specificity over other S1P receptors: S1P4-bla TANGO U2OS; assay type: cell-based; conditions: without Forskolin, read-out: S1P4 agonist value (EC50)
# T2 construct: Tango fusion: TEV protease site plus GAL4-VP16 transcription factor (own knowledge of the Tango format); host or cells: U2OS (bla TANGO)
# T2 sequence (O95977 1-384): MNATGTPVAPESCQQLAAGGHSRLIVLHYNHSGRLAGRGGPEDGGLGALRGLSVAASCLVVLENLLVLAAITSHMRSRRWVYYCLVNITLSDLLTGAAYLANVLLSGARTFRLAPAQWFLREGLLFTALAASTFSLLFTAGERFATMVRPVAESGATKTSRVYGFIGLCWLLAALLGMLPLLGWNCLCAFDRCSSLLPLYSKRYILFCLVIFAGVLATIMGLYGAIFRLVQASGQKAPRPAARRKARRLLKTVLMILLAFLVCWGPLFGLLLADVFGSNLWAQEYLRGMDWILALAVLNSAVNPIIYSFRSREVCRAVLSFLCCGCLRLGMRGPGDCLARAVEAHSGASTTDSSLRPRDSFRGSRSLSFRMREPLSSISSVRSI
# Method: as §1, with “temperature.” for “temperature. Plates were read at Ex:410/Em:458 and Ex:410/Em:522, and the response ratio determined Data was analyzed by non-linear regression to determine the EC50 for inhibition of Forskolin induced cAMP.”
# as §2
# [4] = target: T3, S1P3 (Homo sapiens, UniProt Q99500); assay: Specificity over other S1P receptors: S1P3-Gα15 NFAT-bla HEK293T; assay type: cell-based; conditions: without Forskolin, read-out: S1P3 agonist value (EC50)
# T3 construct: host or cells: NFAT-bla HEK293T
# Method: as §1, §2
# [5] = target: S1P1/EDG1 (Homo sapiens, UniProt P21453); assay: S1P1 CRE-bla CHOK1 reporter assay, inhibition of Forskolin induced cAMP; assay type: cell-based; conditions: S1P1 CRE-bla CHOK1 cells, 2 μM Forskolin
# Procedure, shortened: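 CRE-bla CHO K1 cells stably expressing human S1P1 were treated 4 hrs at 37° C with 10-point compound dilutions plus 2 μM Forskolin. Inhibition of cAMP-driven β-lactamase reporter was read with a FRET substrate loaded 2 hrs at room temperature.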
# [6] = target: T4, S1P5 (Homo sapiens, UniProt Q9H228); assay: Specificity over other S1P receptors: S1P5-bla TANGO U2OS; assay type: cell-based; conditions: without Forskolin, read-out: S1P5 agonist value (EC50)
# T4 construct: Tango fusion: TEV protease site plus GAL4-VP16 transcription factor (own knowledge of the Tango format); host or cells: U2OS (bla TANGO)
# Method: as §1, with “temperature.” for “temperature. Plates were read at Ex:410/Em:458 and Ex:410/Em:522, and the response ratio determined Data was analyzed by non-linear regression to determine the EC50 for inhibition of Forskolin induced cAMP.”
# as §2
# [7] = read-out: S1P1 agonist value (EC50)
# [8] = agonist activity range, read-out: S1P1 ACTIVITY
# S1P1/EDG1, sequence (P21453 whole entry): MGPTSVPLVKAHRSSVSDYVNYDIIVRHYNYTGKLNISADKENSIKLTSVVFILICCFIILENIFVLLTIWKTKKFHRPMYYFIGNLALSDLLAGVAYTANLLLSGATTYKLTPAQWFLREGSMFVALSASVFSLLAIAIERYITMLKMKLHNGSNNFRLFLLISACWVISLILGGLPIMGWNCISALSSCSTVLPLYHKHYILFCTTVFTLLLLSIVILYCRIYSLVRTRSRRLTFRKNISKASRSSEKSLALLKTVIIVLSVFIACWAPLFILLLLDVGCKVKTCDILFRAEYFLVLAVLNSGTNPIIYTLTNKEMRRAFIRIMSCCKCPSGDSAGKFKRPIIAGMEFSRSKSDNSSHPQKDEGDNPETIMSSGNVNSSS
# T1 sequence (O95136 whole entry, species assumed): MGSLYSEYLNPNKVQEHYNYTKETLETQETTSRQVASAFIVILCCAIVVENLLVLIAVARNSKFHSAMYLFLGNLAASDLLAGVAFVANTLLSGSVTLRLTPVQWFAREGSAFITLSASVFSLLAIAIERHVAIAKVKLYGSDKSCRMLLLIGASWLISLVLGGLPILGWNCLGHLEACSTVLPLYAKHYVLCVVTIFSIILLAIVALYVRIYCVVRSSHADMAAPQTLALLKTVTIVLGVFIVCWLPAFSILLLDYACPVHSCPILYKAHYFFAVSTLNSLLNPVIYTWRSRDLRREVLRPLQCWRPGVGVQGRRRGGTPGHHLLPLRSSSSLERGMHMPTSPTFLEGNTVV
# T4 sequence (Q9H228 whole entry, the tested form may be a part): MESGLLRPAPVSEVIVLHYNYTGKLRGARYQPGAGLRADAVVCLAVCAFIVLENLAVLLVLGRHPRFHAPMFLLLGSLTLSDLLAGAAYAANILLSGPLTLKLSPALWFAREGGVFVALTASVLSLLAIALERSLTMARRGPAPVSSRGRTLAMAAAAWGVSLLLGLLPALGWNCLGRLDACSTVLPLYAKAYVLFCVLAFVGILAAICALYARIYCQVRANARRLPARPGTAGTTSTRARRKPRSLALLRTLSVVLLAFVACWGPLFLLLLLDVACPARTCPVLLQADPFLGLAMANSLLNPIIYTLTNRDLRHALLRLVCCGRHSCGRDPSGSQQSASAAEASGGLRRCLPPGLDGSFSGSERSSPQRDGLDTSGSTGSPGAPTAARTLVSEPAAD
# T3 sequence (Q99500 whole entry): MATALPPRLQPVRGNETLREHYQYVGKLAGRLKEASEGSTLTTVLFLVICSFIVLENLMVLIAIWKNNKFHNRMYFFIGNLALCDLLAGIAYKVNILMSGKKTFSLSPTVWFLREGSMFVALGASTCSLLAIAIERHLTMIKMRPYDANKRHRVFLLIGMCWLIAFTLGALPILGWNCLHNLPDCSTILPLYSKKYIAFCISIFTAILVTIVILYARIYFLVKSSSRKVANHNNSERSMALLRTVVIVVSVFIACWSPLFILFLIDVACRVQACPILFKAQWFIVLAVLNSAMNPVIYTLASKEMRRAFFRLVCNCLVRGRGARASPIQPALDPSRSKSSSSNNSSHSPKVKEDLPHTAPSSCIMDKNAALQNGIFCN
SMILES,EC50 [1],inhibition in vivo at 0.2 mg/kg [2],EC50 [3],EC50 [4],"EC50 [5, 7]","EC50 [5, 8]",EC50 [6],ED50 [2]
"CC(C)Oc1ccc(-c2nnc(-c3cccc4c3CCC4NS(=O)(=O)CC(=O)N(C)C)s2)cc1C#N (stereo in doubt) [Compound 43, (R)-2-(N-(4-(5-(3-cyano-4-isopropoxyphenyl)-1,3,4-thiadiazol-2-yl)-2,3-dihydro-1H-inden-1-yl)sulfamoyl)-N,N-dimethylacetamide]",> 10000 nM,40%,> 10000 nM,> 10000 nM,,,,
"CC(C)Oc1ccc(-c2nnc(-c3cccc4c3CCC4NS(=O)(=O)CCO)s2)cc1C#N (stereo in doubt) [Compound 46, (R)—N-(4-(5-(3-cyano-4-isopropoxyphenyl)-1,3,4-thiadiazol-2-yl)-2,3-dihydro-1H-inden-1-yl)-2-hydroxyethanesulfonamide]",> 10000 nM,39%,,> 10000 nM,,,,
"CC(C)Oc1ccc(-c2nnc(-c3cccc4c3CC[C@H]4NC(=O)N3CC[C@@H](N(C)C)C3)s2)cc1C#N [Compound 56, (R)—N—((R)-4-(5-(3-cyano-4-isopropoxyphenyl)-1,3,4-thiadiazol-2-yl)-2,3-dihydro-1H-inden-1-yl)-3-(dimethylamino)pyrrolidine-1-carboxamide]",> 10000 nM,52%,> 10000 nM,> 10000 nM,0.32 nM,0.05 to 0.5 nM,139 nM,
"CC(C)Oc1ccc(-c2nnc(-c3cccc4c3CC[C@H]4NC(=O)N3CCOCC3)s2)cc1C#N [Compound 58, (R)—N-(4-(5-(3-cyano-4-isopropoxyphenyl)-1,3,4-thiadiazol-2-yl)-2,3-dihydro-1H-inden-1-yl)morpholine-4-carboxamide]",> 10000 nM,,> 10000 nM,,,0.05 to 0.5 nM,,
"CC(C)Oc1ccc(-c2ncc(-c3cccc4c3CC[C@H]4NS(N)(=O)=O)s2)cc1C#N [Compound 166, (R)—N-(4-(2-(3-cyano-4-isopropoxyphenyl)thiazol-5-yl)-2,3-dihydro-1H-inden-1-yl)sulfamide]",8450 nM,47%,743 nM,> 10000 nM,0.14 nM,0.05 to 0.5 nM,64 nM,0.07 mg/kg
"CC(C)Oc1ccc(-c2ncc(-c3cccc4c3CC[C@H]4NC(=O)N3CCCC3)s2)cc1C#N [Compound 172, (R)—N-(4-(2-(3-cyano-4-isopropoxyphenyl)thiazol-5-yl)-2,3-dihydro-1H-inden-1-yl)pyrrolidine-1-carboxamide]",> 10000 nM,22%,> 10000 nM,> 10000 nM,0.19 nM,0.05 to 0.5 nM,203 nM,0.2 mg/kg
"CC(C)Oc1ccc(-c2ncc(-c3cccc4c3CC[C@H]4NC(=O)N3CCOCC3)s2)cc1C#N [Compound 186, (R)—N-(4-(2-(3-cyano-4-isopropoxyphenyl)thiazol-5-yl)-2,3-dihydro-1H-inden-1-yl)morpholine-4-carboxamide]",> 10000 nM,,> 10000 nM,,,0.05 to 0.5 nM,,
"CC(C)Oc1ccc(-c2nc(-c3cccc4c3CC[C@@H]4N(CCO)CCO)ns2)cc1C#N [Compound 312, (S)-5-(3-(1-(bis(2-hydroxyethyl)amino)-2,3-dihydro-1H-inden-4-yl)-1,2,4-thiadiazol-5-yl)-2-isopropoxybenzonitrile hydrochloride]",,,,,,0.5 to 5 nM,,
"COC(=O)CS(=O)(=O)N[C@H]1CCc2c(-c3nsc(-c4ccc(OC(C)C)c(C#N)c4)n3)cccc21 [Compound 313, (S)-methyl 2-(N-(4-(5-(3-cyano-4-isopropoxyphenyl)-1,2,4-thiadiazol-3-yl)-2,3-dihydro-1H-inden-1-yl)sulfamoyl)acetate]",,,,,,0.05 to 0.5 nM,,
"CC(C)Oc1ccc(-c2nc(-c3cccc4c3CC[C@@H]4NS(=O)(=O)CCO)ns2)cc1C#N [Compound 314, (S)—N-(4-(5-(3-cyano-4-isopropoxyphenyl)-1,2,4-thiadiazol-3-yl)-2,3-dihydro-1H-inden-1-yl)-2-hydroxyethanesulfonamide]",,,,,,0.5 to 5 nM,,

# — US9481659B2, “Selective heterocyclic sphingosine 1 phosphate receptor modulators” (Celgene International II SÀRL, priority 2011, dated 2016)
